# Experimental data as given in patent publication US9365830B2, “Agents and methods for inhibiting human pluripotent stem cell growth” (VIACYTE, INC., priority 2010, dated 2016).
# Test system: OCT4-positive cells in Stage 1 differentiations of hES cells
# Experiment: Plating assay for depletion of OCT4-positive cells in Stage 1 suspension aggregates, OCT4 immunostaining
# Format: cell-based, human
# Settings: treated day 1 to 2 of Stage 1 at EC50 concentration; plated 24 hours in hESC medium; vs untreated or DMSO
# Method: Human ES cell suspension aggregates were formed in rotational culture as described previously and differentiated through Stage 1 (definitive endoderm). About 20-30 aggregates were then plated per well in 4-well tissue culture dishes coated with MATRIGEL· diluted 1:200, and cultured for 24 hours in hESC medium (DMEM/F12, 10% XF-KSR, 10 ng/mL Activin A and 10 ng/mL Heregulin). This approach was intended to increase the contrast in OCT4 expression between undifferentiated hESCs and cells committed to differentiation. […] Stated in another way, mixed population cell cultures in hESC medium would potentially support expansion/proliferation of residual undifferentiated (hESCs), thereby show increased OCT4 gene expression, as compared to cells committed to differentiation, which would have decreased of OCT4 gene expression. Plated aggregates were immunostained for OCT4 protein and counterstained with DAPI, a nuclear stain (FIG. 12). The cell aggregates that were plated had flattened and spread out within a 24-hour period; while the centers of the aggregates were still domed. […] Brightly staining OCT4-positive cells were easily identified and distinguishable from the majority of OCT4 negative cells. OCT4-positive cells were generally found in clusters and most often within the domed area of a plated aggregate. […] Smaller aggregates residing in a larger aggregate may occur as a result of the initial stages of rotational culture, or the aggregation process, during which small clusters (primary aggregates) form initially. Aggregation of two or more primary aggregates likely leads to the formation of larger secondary aggregates, which can be 100-150 μm in diameter. Thus, it is possible that any single clusters of OCT4-positive cells exist at the center of a primary aggregate and resist differentiation. Such clusters would remain substantially undifferentiated and stain OCT4-positive. One hypothesis is that primary aggregates are specified to differentiation relative to their positioning in primary and secondary aggregates. For example, FIGS. 12A through 12E show a representative series of images, from small (primary) (e.g. FIGS. 12A and 12B) and larger (secondary) (e.g. FIGS. 12C-12E) plated aggregates containing OCT4-positive clusters (dark circles).
# Depletion of OCT4-positive cells during Stage 1 differentiation was examined using the plating assay described above. Stage 1 differentiations of hES cells were treated from day 1 to 2 with the candidate compounds as described in Example 2 (chelerythrine chloride, caffeic acid and Ivermectin), at their EC50 concentrations for hES cells. Plated untreated and DMSO-treated aggregates were indistinguishable, and both contained discrete clusters of OCT4-positive cells. See FIG. 13A top and bottom panels for a DMSO treated example. The intensity of OCT4-positive staining in differentiating aggregate cell cultures treated with DMSO (control) was equivalent to undifferentiated hES cells.
# Additional experiments were performed using higher concentrations of compounds and extended effects of the compounds in cell culture plated aggregates in hESC medium for 24 or 72 hours before staining (FIGS. 15 and 16). […] Another group of Stage 1 differentiating cultures were processed in parallel, but treated with 10 μm chelerythrine chloride.
substance,measurement,value
"22, 23-dihydroavermectin B1a+22,23-dihydroavermectin B1b [Ivermectin]",intensity for OCT4 staining,significantly decreased
